Data from patent US6503881B2 (priority 1996, dated 2003).
Where two headings read alike, the source gives them in different places.

Test system: bacterial isolates
Conditions: for PIC: with Gentamicin

## W R I W K P K W R L P K W [MBI 11D18CN]
A. baumannii ABI001
  Gentamicin MIC + Peptide: 16 µg/mL
  Peptide MIC + Gentamicin: 0.5 µg/mL
  Peptide MIC + Tobramycin: 4 µg/mL
  Peptide MIC Alone: 64 µg/mL
  Tobramycin MIC + Peptide: 4 µg/mL
  PIC: 0.27
A. baumannii ABI002
  Gentamicin MIC + Peptide: 8 µg/mL
  Peptide MIC + Gentamicin: 2 µg/mL
  Peptide MIC + Tobramycin: 0.5 µg/mL
  Peptide MIC Alone: 16 µg/mL
  Tobramycin MIC + Peptide: 4 µg/mL
  PIC: 0.56
A. calcoaceticus 3
  Peptide MIC + Piperacillin: 8 µg/mL
  Peptide MIC Alone: 32 µg/mL
  Piperacillin MIC + Peptide: 8 µg/mL
E. cloacae 9
  Peptide MIC + Piperacillin: 16 µg/mL
  Peptide MIC Alone: 64 µg/mL
  Piperacillin MIC + Peptide: 16 µg/mL
E. cloacae 10
  Peptide MIC + Piperacillin: 8 µg/mL
  Peptide MIC Alone: 32 µg/mL
  Piperacillin MIC + Peptide: 64 µg/mL
E. coli ECO006
  Gentamicin MIC + Peptide: 16 µg/mL
  Peptide MIC + Gentamicin: 0.125 µg/mL
  PIC: 0.27
E. coli SBECO1
  Mupirocin MIC + Peptide: 30 µg/mL
  Peptide MIC + Mupirocin: 0.125 µg/mL
E. coli SBECO1 (Mupirocin section)
  Peptide MIC Alone: 2 µg/mL
E. coli SBECO2
  Mupirocin MIC + Peptide: 30 µg/mL
  Peptide MIC + Mupirocin: 0.5 µg/mL
E. coli SBECO2 (Mupirocin section)
  Peptide MIC Alone: 16 µg/mL
E. faecalis EFS001
  Peptide MIC + Vancomycin: 2 µg/mL
  Peptide MIC Alone: 8 µg/mL
  Vancomycin MIC + Peptide: 0.125 µg/mL
E. faecalis EFS004
  Peptide MIC + Vancomycin: 2 µg/mL
  Peptide MIC Alone: 8 µg/mL
  Vancomycin MIC + Peptide: 0.5 µg/mL
E. faecalis EFS008
  Gentamicin MIC + Peptide: 8 µg/mL
  Peptide MIC + Gentamicin: 0.125 µg/mL
  PIC: 0.19
E. faecalis EFS011
  Peptide MIC + Vancomycin: 0.125 µg/mL
  Peptide MIC Alone: 64 µg/mL
  Vancomycin MIC + Peptide: 32 µg/mL
E. faecalis EFS012
  Peptide MIC + Vancomycin: 2 µg/mL
  Peptide MIC Alone: 16 µg/mL
  Vancomycin MIC + Peptide: 64 µg/mL
E. faecalis EFS014
  Peptide MIC + Vancomycin: 0.5 µg/mL
  Peptide MIC Alone: 4 µg/mL
  Vancomycin MIC + Peptide: 4 µg/mL
E. faecium EFM004
  Gentamicin MIC + Peptide: 8 µg/mL
  Peptide MIC + Gentamicin: 0.125 µg/mL
  Peptide MIC + Vancomycin: 2 µg/mL
  Peptide MIC Alone: 8 µg/mL
  Vancomycin MIC + Peptide: 64 µg/mL
  PIC: 0.05
E. faecium EFM009
  Peptide MIC + Vancomycin: 0.125 µg/mL
  Peptide MIC Alone: 8 µg/mL
  Vancomycin MIC + Peptide: 32 µg/mL
E. faecium EFM010
  Peptide MIC + Vancomycin: 0.25 µg/mL
  Peptide MIC Alone: 8 µg/mL
  Vancomycin MIC + Peptide: 64 µg/mL
E. faecium EFM011
  Peptide MIC + Vancomycin: 2 µg/mL
  Peptide MIC Alone: 8 µg/mL
  Vancomycin MIC + Peptide: 64 µg/mL
H. influenzae 3
  Peptide MIC + Piperacillin: 8 µg/mL
  Peptide MIC Alone: >128 µg/mL
  Piperacillin MIC + Peptide: 0.25 µg/mL
H. influenzae SB1
  Peptide MIC + Piperacillin: 4 µg/mL
  Peptide MIC Alone: >128 µg/mL
  Piperacillin MIC + Peptide: 0.25 µg/mL
K. pneumonia KP020
  Gentamicin MIC + Peptide: 32 µg/mL
  Peptide MIC + Gentamicin: 0.125 µg/mL
  PIC: 0.50
K. pneumonia KP020 (Gentamicin section)
  Peptide MIC Alone: 32 µg/mL
P. aeruginosa 23
  Peptide MIC + Piperacillin: 8 µg/mL
  Peptide MIC Alone: 64 µg/mL
  Piperacillin MIC + Peptide: 32 µg/mL
P. aeruginosa 41
  Peptide MIC + Piperacillin: 16 µg/mL
  Peptide MIC Alone: >128 µg/mL
  Piperacillin MIC + Peptide: 32 µg/mL
P. aeruginosa PA4
  Mupirocin MIC + Peptide: 30 µg/mL
  Peptide MIC + Mupirocin: 64 µg/mL
P. aeruginosa PA4 (Mupirocin section)
  Peptide MIC Alone: 128 µg/mL
P. aeruginosa PA022
  Gentamicin MIC + Peptide: 8 µg/mL
  Peptide MIC + Gentamicin: 0.125 µg/mL
  PIC: 0.52
P. aeruginosa PA022 (Gentamicin section)
  Peptide MIC Alone: 8 µg/mL
P. aeruginosa PA24
  Ciprofloxacin MIC + Peptide: 4 µg/mL
  Peptide MI + Ciprofloxacin: 16 µg/mL
P. aeruginosa PA24 (Ciprofloxacin section)
  Peptide MI Alone: >128 µg/mL
P. aeruginosa PA041
  Gentamicin MIC + Peptide: 0.125 µg/mL
  Peptide MIC + Gentamicin: 8 µg/mL
  PIC: 0.14
P. aeruginosa PA041 (Gentamicin section)
  Peptide MIC Alone: 64 µg/mL
P. aeruginosa PA77
  Ciprofloxacin MIC + Peptide: 0.5 µg/mL
  Peptide MI + Ciprofloxacin: 32 µg/mL
P. aeruginosa PA77 (Ciprofloxacin section)
  Peptide MI Alone: 128 µg/mL
P. aeruginosa SBPA1
  Mupirocin MIC + Peptide: 100 µg/mL
  Peptide MIC + Mupirocin: 32 µg/mL
P. aeruginosa SBPA1 (Mupirocin section)
  Peptide MIC Alone: 128 µg/mL
Piperacillin + peptide, A. calcoaceticus 3
  FIC: 0.38
Piperacillin + peptide, E. cloacae 9
  FIC: 0.31
Piperacillin + peptide, E. cloacae 10
  FIC: 0.50
Piperacillin + peptide, H. influenzae 3
  FIC: 0.53
Piperacillin + peptide, H. influenzae SB1
  FIC: 0.52
Piperacillin + peptide, P. aeruginosa 23
  FIC: 0.38
Piperacillin + peptide, P. aeruginosa 41
  FIC: 0.56
Piperacillin + peptide, S. aureus 19 MRSA
  FIC: 0.38
Piperacillin + peptide, S. aureus SB2MRSA
  FIC: 0.50
Piperacillin + peptide, S. maltophilia 2
  FIC: 0.50
Piperacillin + peptide, S. marcescens 1
  FIC: 0.14
S. aureus 19 MRSA
  Peptide MIC + Piperacillin: 1 µg/mL
  Peptide MIC Alone: 4 µg/mL
  Piperacillin MIC + Peptide: 16 µg/mL
S. aureus SA014 MRSA
  Gentamicin MIC + Peptide: 2 µg/mL
  Peptide MIC + Gentamicin: 0.125 µg/mL
  PIC: 0.13
S. aureus SA014 MRSA (Gentamicin section)
  Peptide MIC Alone: 2 µg/mL
S. aureus SA018 MRSA
  Peptide MIC + Tobramycin: 16 µg/mL
  Peptide MIC Alone: 32 µg/mL
  Tobramycin MIC + Peptide: 4 µg/mL
S. aureus SA025 MRSA
  Gentamicin MIC + Peptide: 1 µg/mL
  Peptide MIC + Gentamicin: 0.125 µg/mL
  PIC: 0.14
S. aureus SA025 MRSA (Gentamicin section)
  Peptide MIC Alone: 1 µg/mL
S. aureus SB2MRSA
  Peptide MIC + Piperacillin: 0.5 µg/mL
  Peptide MIC Alone: 2 µg/mL
  Piperacillin MIC + Peptide: 32 µg/mL
S. epidermidis SE071
  Gentamicin MIC + Peptide: 4 µg/mL
  Peptide MIC + Gentamicin: 0.125 µg/mL
  PIC: 0.27
S. epidermidis SE071 (Gentamicin section)
  Peptide MIC Alone: 8 µg/mL
S. epidermidis SE074
  Gentamicin MIC + Peptide: 4 µg/mL
  Peptide MIC + Gentamicin: 0.125 µg/mL
  PIC: 0.09
S. epidermidis SE074 (Gentamicin section)
  Peptide MIC Alone: 4 µg/mL
S. haemolyticus SHA001
  Peptide MIC + Tobramycin: 1 µg/mL
  Peptide MIC Alone: 2 µg/mL
  Tobramycin MIC + Peptide: 0.125 µg/mL
S. maltophilia 2
  Peptide MIC + Piperacillin: 8 µg/mL
  Peptide MIC Alone: 32 µg/mL
  Piperacillin MIC + Peptide: 16 µg/mL
S. maltophilia SMA016
  Gentamicin MIC + Peptide: 16 µg/mL
  Peptide MIC + Gentamicin: 16 µg/mL
  PIC: 0.38
S. maltophilia SMA016 (Gentamicin section)
  Peptide MIC Alone: 64 µg/mL
S. maltophilia SMA019
  Gentamicin MIC + Peptide: 4 µg/mL
  Peptide MIC + Gentamicin: 0.5 µg/mL
  PIC: 0.19
S. maltophilia SMA019 (Gentamicin section)
  Peptide MIC Alone: 8 µg/mL
S. maltophilia SMA027
  Peptide MIC + Tobramycin: 16 µg/mL
  Peptide MIC Alone: >128 µg/mL
  Tobramycin MIC + Peptide: 4 µg/mL
S. maltophilia SMA029
  Peptide MIC + Tobramycin: 4 µg/mL
  Peptide MIC Alone: 32 µg/mL
  Tobramycin MIC + Peptide: 4 µg/mL
S. marcescens 1
  Peptide MIC + Piperacillin: 4 µg/mL
  Peptide MIC Alone: >128 µg/mL
  Piperacillin MIC + Peptide: 8 µg/mL
S. marcescens SBSM1
  Mupirocin MIC + Peptide: 100 µg/mL
  Peptide MIC + Mupirocin: 16 µg/mL
S. marcescens SBSM1 (Mupirocin section)
  Peptide MIC Alone: >128 µg/mL
S. marcescens SBSM2
  Mupirocin MIC + Peptide: 100 µg/mL
  Peptide MIC + Mupirocin: 64 µg/mL
S. marcescens SBSM2 (Mupirocin section)
  Peptide MIC Alone: >128 µg/mL
Tobramycin + peptide, A. baumannii ABI001
  FIC: 0.31
Tobramycin + peptide, A. baumannii ABI002
  FIC: 0.53
Tobramycin + peptide, S. aureus SA018 MRSA
  FIC: 0.56
Tobramycin + peptide, S. haemolyticus SHA001
  FIC: 0.53
Tobramycin + peptide, S. maltophilia SMA027
  FIC: 0.19
Tobramycin + peptide, S. maltophilia SMA029
  FIC: 0.16
Vancomycin + peptide, E. faecalis EFS001
  FIC: 0.38
Vancomycin + peptide, E. faecalis EFS004
  FIC: 0.50
Vancomycin + peptide, E. faecalis EFS011
  FIC: 0.50
Vancomycin + peptide, E. faecalis EFS012
  FIC: 0.38
Vancomycin + peptide, E. faecalis EFS014
  FIC: 0.16
Vancomycin + peptide, E. faecium EFM004
  FIC: 0.50
Vancomycin + peptide, E. faecium EFM009
  FIC: 0.52
Vancomycin + peptide, E. faecium EFM010
  FIC: 0.28
Vancomycin + peptide, E. faecium EFM011
  FIC: 0.50
With Ciprofloxacin, P. aeruginosa PA24
  FIC: 0.31
With Ciprofloxacin, P. aeruginosa PA77
  FIC: 0.50
With Mupirocin, E. coli SBECO1
  FIC: 0.36
With Mupirocin, E. coli SBECO2
  FIC: 0.06
With Mupirocin, P. aeruginosa PA4
  FIC: 0.53
With Mupirocin, P. aeruginosa SBPA1
  FIC: 0.35
With Mupirocin, S. marcescens SBSM1
  FIC: 0.16
With Mupirocin, S. marcescens SBSM2
  FIC: 0.35
